Results from paper PMC10666548, “Identification of the bacterial metabolite aerugine as potential trigger of human dopaminergic neurodegeneration” (Environment international, 2023).

Key:
[1] = tested on: LUHMES neurons; experiment: LDH-release and resazurin reduction tests on d6 LUHMES; assay type: cell-based, human; conditions: 24 h
Description: The assay was performed as described earlier ([Latta et al., 2000]). In brief, supernatants were transferred to an un-coated 96-wellplate and cells were lysed in 110 μl of phosphate buffered saline (PBS) with 0.1% Triton-X100 for 1 h at room temperature. Lactate dehydrogenase (LDH) activity was assessed in the supernatant and the cell lysate individually by combining 10 μl sample with 100 μl potassium phosphate buffer pH 7.5 containing 640 μM pyruvate and […] NADH. NADH was quantified by measuring the absorption at 340 nm over 15 min and its decline was proportional to the LDH content. LDH release was calculated as the ratio of LDHsupernatant/LDHsupernatant+lysate.
The assay was performed as described previously ([Schildknecht et al., 2009]). In brief, cells were stained with 10 μg/ml resazurin and incubated for 30 min at 37 °C and 5% CO2. The fluorescence of resazurin was detected with an excitation wavelength of 530 nm, using a 590 nm long-pass filter to record the emission. […]
Supplementary Figure S7: Viability endpoints measured on d6 LUHMES treated with aerugine Cultures of differentiated LUHMES neurons were exposed on d6 to serial dilutions of aerugine for 24 h. The cell viability (V), neurite area (NA) were assessed 24 h later by calcein-AM & H-33342 staining and high content imaging. Resazurin reduction and LDH release were measured subsequently. […]

[2] = tested on: LUHMES neurons; experiment: Time course of cell death in d6 LUHMES (phase contrast, TMRE, H-33342, propidium iodide); assay type: cell-based, human; conditions: 10 μM
Description: Cells were stained either with 50 nM tetramethylrhodamine ethyl ester (TMRE) or 1.5 μM propidium iodide (PI) for at least 30 min at 37 °C and 5% CO2 ([Brüll et al., 2020]; [Krug et al., 2014]). Fluorescent imaging was performed (AxioObserver, Zeiss, Germany) with excitation/emission wavelengths of 575 ± 25/640 ± 35 nm.
To obtain additional information on the death process triggered by aerugine, we also examined earlier time points after exposure to a fixed concentration of 10 μM. Semi-quantitative information was obtained from phase contrast images, by staining of energized mitochondria with the potential-sensitive dye tetramethylrhodamine ethyl ester (TMRE) and by visualization of the chromatin structure with the […] dye H-33342. […] While the neurite structure was well-preserved, some of the cell bodies flattened in a way that the nucleus became visible in phase contrast. The normally round/dome-like cells took a flattened “fried egg” structure. In parallel, the DNA condensed and fragmented into small, round and highly-fluorescent spheres, a typical hallmark of apoptosis. Cells with apoptotic nuclei had lost their TMRE stain. At 8 h, more cell bodies looked flattened (“unhealthy”) and the neurites were thinning. […] This sequence of events is typical of neuronal apoptosis, e.g. under mild excitotoxic conditions, or after exposure to proteasome inhibitors or cytoskeletal poisons ([Gutbier et al., 2018b]; [Leist et al., 1997]; [Volbracht et al., 2001]; [Volbracht et al., 1999]). The overall kinetics of cell death was rather fast, compared to many other toxicants. […] To obtain a more quantitative confirmation of the rapid process, cells were stained with calcein-acetoxymethyl ester and propidium iodide (PI) and observed over time. The staining of nuclei (indication of plasma membrane permeability) by PI was quantified by an imaging algorithm. By 6 h, dead cells increased by 17 ± 6%, by 8 h by 25 ± 5%, and by 10 h, > 95% of the cell nuclei were positive. This confirms the fast cell death process triggered by aerugine (10 μM) in neurons.

[3] = tested on: d3 LUHMES cells; experiment: Aerugine toxicity in glucose vs galactose medium; assay type: cell-based, human
Description: Ückert et al. (2023): Identification of the bacterial metabolite aerugine as potential trigger of human dopaminergic […]
A The effect of aerugine on respiratory function was analysed in d3 LUHMES cells. The oxygen consumption rate of the individual technical replicates is shown. The oxygen consumption rate is normalised to the last measurement before injection. The injections of aerugine, control and the subsequent assay tool compounds are indicated (FCCP: 1.5 µM; oligomycin: 1 µM; rotenone + antimycin A: 0.5 µM +0.5 µM). B Several parameters were derived from the oxygen consumption rate. The data is presented as means ± SD of four replicates (obtained from one cell batch). Statistical analysis was performed using a one-way ANOVA with Dunnett‘s multiple comparisons test. * = p < 0.0001. C Delp et al. (2019) determined the dependence of LUHMES cells on glycolysis and their mitochondria for ATP production in two different media conditions. […]
mitochondrial metabolism in producing ATP in the two different media. D Aerugine toxicity was assessed in d3 LUHMES cells cultured in glucose and in galactose medium. Cell viability was assessed by calcein-AM & H-33342 staining and automated fluorescence microscopy. Double positive cells were counted as viable, H-33342 mono-positive cells were counted as dead.

[4] = tested on: other neurons; experiment: Toxicity for other neurons (abstract summary); assay type: cell-based; conditions: Homo sapiens, Neuron, read-out: half-maximal toxicity for other neurons
[5] = tested on: Enterococcus faecalis; experiment: Bacterial growth assay; assay type: cell-based; conditions: 20 μM, log growth phase
Description: Enterococcus faecalis was grown in BHI medium (BD Difco Brain Heart Infusion) with 36 g/l supplemented with 20 μg/ml hemin, 20 μg/ml NAD and 15 g/l agar for plates. Enterococcus faecalis strain 438 originates from eye isolate. Neisseria gonorrhoeae strain MS11 was gifted by T. F. Meyer (Max-Planck-Institute for Infection Biology, Berlin, Germany) ([Edwards et al., 1984]).
Bacteria were grown as described above on solid medium. Prior to substance exposure, bacteria were pre-cultured in liquid medium for at least 2 h. Optical density was determined and a volume equal to an OD550 of 0.2 for Neisseria gonorrhoeae MS11 (equates a final OD550 of 0.04) and an OD600 of 0.2 for Enterococcus faecalis (equates a final OD600 of 0.04) was inoculated into 5 ml of the respective liquid medium. Compound was added at the indicated amounts. Dimethyl sulfoxide (DMSO) level was adjusted to 1 % of final concentration including DMSO control. Samples were incubated for either 10.5 h, until they reached a stationary phase (three measured values in stationary phase) or until they reached an OD of 2.5. Optical density was determined every 0.5 h at OD550 for Neisseria gonorrhoeae MS11 and at OD600 for Enterococcus faecalis. ([Szamosvári et al., 2019]).

OCC1CSC(c2ccccc2O)=N1 (stereo not shown) [aerugine, 2-[4-(hydroxymethyl)-4,5-dihydro-1,3-thiazol-2-yl]phenol]
LDH-release and resazurin reduction viability [1]: confirmed the single cell data, although with slightly less sensitivity
morphology (phase contrast, TMRE, H-33342) ([2]; 6 h exposure): clear morphological changes became obvious
mitochondrial membrane potential in intact neurites (TMRE) ([2]; 8 h): the mitochondrial membrane potential was lost
morphology (neurites, nuclei) ([2]; 10 h): the majority of neurites was lost
increase of dead cells (PI-stained nuclei) ([2]; by 6 h): 17 ± 6%
increase of dead cells (PI-stained nuclei) ([2]; by 8 h): 25 ± 5%
PI-positive cell nuclei ([2]; by 10 h): > 95%
toxicity in galactose vs glucose medium [3]: no increased aerugine toxicity was observed
EC50 [4]: 10 to 20 µM
viability or growth [5]: not affected in viability or growth
